Data as given in patent US11851712B2, “Replication stress response biomarkers for immunotherapy response” (Board of Regents, The University of Texas System, priority 2018, dated 2023).
pIC50: −log10 of the molar value.

How the values were obtained:
[1] = system: p21; assay: Western blot of p21 protein; assay type: cell-based, human; conditions: 0.5 μM AZD6244 or 0.1 μM SCH772984 for 48 hours, doxycycline 2 μg/mL
[2] = system: RSRD cells (MCF-10A cyclin E); assay: Senescence assay (senescence-associated β galactosidase staining); assay type: cell-based, human; conditions: 0.5 μM AZD6244 (MEKi) or 0.1 μM ERKi (SCH772984) for 48 hours
Protocol: Senescence assay. shCTRL, shCTRL_cycE, and RSRD cells (5×10^4) were seeded in 6 wells for 48 h prior to treatment with MEK or ERK inhibitors in presence or absence of 2 μg/mL doxycycline to induce cyclin E expression. After the addition of these inhibitors, cells were cultured for another 48 h. Next, a senescence assay was performed using the senescence β-galactosidase staining kit according to the manufacturer's protocol. The percentage of senescent cells was calculated using the ratio of SA-βgal-positive cells to total cells. Mammosphere Formation Assay RSR defect model cells (5000) were seeded in an ultra-low-attachment surface 6-well plate (Corning) in mammosphere medium (50% DMEM, 50% DMEM/F12, […] hydrocortisone, 10 μg/mL insulin, 20 ng/mL recombinant EGF, 100 ng/mL cholera toxin) for 7 days in presence or absence of 2 μg/mL doxycycline to induce cyclin E expression. Spheres with diameters larger than 50 μm were scored as mammospheres.

[3] = system: breast cancer cell lines / MCF10A shATR over-expressing cyclin E; assay: Aldehyde dehydrogenase assay (Aldefluor, flow cytometry), CSC depletion; assay type: cell-based, human; conditions: 48 hours, AZD6244 0.5 or 1.0 μM, SCH772984 0.1 or 1.0 μM, MDA-MB-231, MDA-MB-436, MCF7-stem, M158, 4T1
Protocol: Aldehyde dehydrogenase assay. Aldehyde dehydrogenase was detected using the Aldefluor kit ([…] Technologies) per the manufacturer's instructions. In brief, 1×10^6 cells/mL were incubated with Aldefluor reagent in presence or absence of ALDH inhibitor DEAB for 45 minutes at 37° C. Cells were washed, re-suspended in ALDH buffer, and analyzed by flow cytometry. Positive cells were gated relative to the DEAB-treated negative control. In some instances, cells were treated with AZD6244, SCH772984, or 2 μg/mL doxycycline 48 hours prior to analysis.

[4] = system: MCF10A shATR cells; assay: Stem cell score from gene expression; assay type: cell-based, human; conditions: 48 hours, 0.5 μM AZD6244, MCF10A shATR cells
Protocol: Microarrays. Microarray analysis was conducted as described previously (Peng et al., 2014). Specifically, total RNA was extracted from the cells 48 hours after plating in presence or absence of doxycycline using a QIAGEN RNeasy RNA isolation kit. Complementary RNA was generated using a TotalPrep RNA amplification kit and loaded onto a HumanHT-12 v4 Expression BeadChip for analysis using the manufacturer's procedure.
Expression signature score. Expression signature scores were computed based on correlation coefficient between the coefficients in the gene signature and corresponding expression level in a given sample (McGrail et al., 2017; van de Vijver et al., 2002), with higher values representing a stronger correlation.

[5] = system: 4T1 murine mammary carcinoma; assay: 4T1 murine mammary carcinoma in syngeneic mice, combination with anti-PD1; assay type: in vivo; conditions: 25 mg/kg AZD7762 plus 10 mg/kg anti-PD1 (clone RMP1-14), Balb\C mice
Source text: FIG. 18. […] The 4T1 murine mammary carcinoma was implanted into syngeneic (Balb\C) mice and allowed to grow to ˜[…] before randomization.

[6] = system: p53; assay: Western blot of p53 levels; assay type: cell-based, human; conditions: 0.1 μM SCH772984 for 48 hours vs DMSO
[7] = system: MDM2 phosphorylation; assay: Western blot of MDM2 phosphorylation; assay type: cell-based, human; conditions: 0.1 μM SCH772984 for 48 hours vs DMSO
[8] = target: ATR (Homo sapiens, UniProt Q13535); conditions: read-out: kinase inhibition IC50; cited from earlier work
Chain of ATR (Q13535 whole entry): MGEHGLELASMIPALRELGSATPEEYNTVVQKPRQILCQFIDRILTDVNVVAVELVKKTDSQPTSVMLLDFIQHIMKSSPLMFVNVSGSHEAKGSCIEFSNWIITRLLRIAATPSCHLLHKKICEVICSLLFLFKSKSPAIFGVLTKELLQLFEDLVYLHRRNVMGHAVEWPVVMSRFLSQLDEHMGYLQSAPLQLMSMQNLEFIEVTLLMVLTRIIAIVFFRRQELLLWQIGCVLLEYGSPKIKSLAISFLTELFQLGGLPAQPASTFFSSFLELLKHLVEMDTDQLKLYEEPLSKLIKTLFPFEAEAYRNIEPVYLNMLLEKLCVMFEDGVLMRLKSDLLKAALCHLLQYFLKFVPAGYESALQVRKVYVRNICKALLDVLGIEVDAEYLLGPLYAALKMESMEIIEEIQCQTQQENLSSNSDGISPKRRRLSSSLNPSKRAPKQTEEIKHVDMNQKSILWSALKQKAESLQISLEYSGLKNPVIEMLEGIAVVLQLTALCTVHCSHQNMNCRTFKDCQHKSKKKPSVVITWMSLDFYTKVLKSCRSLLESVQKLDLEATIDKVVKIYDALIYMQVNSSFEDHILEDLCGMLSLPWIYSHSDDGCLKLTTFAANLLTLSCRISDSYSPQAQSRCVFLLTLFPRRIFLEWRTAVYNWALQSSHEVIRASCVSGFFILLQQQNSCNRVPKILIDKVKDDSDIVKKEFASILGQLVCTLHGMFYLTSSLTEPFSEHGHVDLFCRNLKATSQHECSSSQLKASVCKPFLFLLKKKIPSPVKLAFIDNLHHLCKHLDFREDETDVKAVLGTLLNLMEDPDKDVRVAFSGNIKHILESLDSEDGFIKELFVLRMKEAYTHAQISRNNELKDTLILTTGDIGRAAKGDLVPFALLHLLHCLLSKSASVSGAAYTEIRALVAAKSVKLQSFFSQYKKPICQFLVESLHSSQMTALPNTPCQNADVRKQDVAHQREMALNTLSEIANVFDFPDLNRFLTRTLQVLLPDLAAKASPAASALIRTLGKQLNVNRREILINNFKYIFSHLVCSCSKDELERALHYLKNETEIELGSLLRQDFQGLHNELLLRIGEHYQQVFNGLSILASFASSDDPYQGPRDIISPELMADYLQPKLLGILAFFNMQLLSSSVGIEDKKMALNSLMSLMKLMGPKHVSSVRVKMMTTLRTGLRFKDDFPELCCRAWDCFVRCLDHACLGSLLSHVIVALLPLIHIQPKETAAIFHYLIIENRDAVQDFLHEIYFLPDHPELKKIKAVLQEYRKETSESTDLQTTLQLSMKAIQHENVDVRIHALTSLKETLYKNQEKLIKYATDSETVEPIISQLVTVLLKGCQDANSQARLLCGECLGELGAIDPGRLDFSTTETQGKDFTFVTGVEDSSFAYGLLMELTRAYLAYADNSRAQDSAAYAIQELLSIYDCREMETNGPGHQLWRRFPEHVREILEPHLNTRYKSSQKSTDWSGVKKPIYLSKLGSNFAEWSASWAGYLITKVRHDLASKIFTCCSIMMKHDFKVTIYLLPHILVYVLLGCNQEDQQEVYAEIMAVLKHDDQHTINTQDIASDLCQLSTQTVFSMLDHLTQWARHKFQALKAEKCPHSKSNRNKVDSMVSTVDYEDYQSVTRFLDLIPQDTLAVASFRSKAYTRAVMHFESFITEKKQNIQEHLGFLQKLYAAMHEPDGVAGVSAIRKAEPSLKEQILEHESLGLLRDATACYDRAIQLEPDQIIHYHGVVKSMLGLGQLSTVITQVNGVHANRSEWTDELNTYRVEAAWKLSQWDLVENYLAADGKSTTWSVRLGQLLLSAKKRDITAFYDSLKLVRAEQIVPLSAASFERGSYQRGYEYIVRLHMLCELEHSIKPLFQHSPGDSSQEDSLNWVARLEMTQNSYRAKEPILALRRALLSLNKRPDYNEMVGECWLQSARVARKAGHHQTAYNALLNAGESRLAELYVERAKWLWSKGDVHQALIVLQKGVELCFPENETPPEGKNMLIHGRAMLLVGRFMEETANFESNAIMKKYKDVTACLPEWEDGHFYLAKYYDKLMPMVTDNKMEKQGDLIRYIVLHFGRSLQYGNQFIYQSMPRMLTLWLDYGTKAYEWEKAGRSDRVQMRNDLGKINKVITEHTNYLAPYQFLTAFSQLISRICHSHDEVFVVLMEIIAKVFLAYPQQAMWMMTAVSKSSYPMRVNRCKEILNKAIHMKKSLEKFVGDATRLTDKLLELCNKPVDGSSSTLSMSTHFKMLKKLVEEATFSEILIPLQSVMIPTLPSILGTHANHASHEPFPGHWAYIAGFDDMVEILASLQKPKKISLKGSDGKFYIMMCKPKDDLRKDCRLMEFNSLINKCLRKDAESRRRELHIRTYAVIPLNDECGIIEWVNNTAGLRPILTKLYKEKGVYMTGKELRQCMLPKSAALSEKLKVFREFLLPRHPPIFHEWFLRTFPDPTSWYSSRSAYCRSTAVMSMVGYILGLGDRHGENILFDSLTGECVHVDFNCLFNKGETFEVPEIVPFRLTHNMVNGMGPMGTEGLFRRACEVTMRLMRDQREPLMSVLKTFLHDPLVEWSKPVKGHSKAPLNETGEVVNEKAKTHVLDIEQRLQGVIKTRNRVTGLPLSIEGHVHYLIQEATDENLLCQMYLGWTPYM
Chain of ATR (Q8WXE1 whole entry partner): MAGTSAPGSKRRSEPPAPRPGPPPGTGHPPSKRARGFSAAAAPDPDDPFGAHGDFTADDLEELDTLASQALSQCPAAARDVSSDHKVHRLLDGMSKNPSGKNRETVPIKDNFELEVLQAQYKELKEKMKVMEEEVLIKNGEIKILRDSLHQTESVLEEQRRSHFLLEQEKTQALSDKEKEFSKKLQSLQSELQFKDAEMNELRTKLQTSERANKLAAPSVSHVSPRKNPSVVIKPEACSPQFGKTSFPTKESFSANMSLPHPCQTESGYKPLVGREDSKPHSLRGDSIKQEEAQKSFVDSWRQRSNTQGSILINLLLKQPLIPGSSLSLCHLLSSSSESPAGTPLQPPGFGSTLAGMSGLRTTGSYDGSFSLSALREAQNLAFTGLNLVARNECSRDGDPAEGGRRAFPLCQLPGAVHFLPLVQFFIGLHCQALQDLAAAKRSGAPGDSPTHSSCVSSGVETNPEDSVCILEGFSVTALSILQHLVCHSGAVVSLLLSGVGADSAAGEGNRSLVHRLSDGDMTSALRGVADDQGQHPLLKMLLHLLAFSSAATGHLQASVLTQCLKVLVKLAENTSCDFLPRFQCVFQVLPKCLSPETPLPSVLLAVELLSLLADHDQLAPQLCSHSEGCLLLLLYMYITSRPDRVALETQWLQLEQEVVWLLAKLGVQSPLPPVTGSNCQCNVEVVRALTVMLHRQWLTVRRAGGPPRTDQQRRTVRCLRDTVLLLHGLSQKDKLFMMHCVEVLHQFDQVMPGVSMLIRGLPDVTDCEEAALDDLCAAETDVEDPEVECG

[9] = system: GBM patients; conditions: neoadjuvant treatment, Cloughesy et al. (2019); cited from earlier work

Row | Compound | p21 protein expression [1] | oncogene-induced senescence by staining for senescence-associated β galactosidase [2] | CSC depletion by aldehyde dehydrogenase (ALDH) positivity [3] | also measured
1 | Cn1cnc2c(F)c(Nc3ccc(Br)cc3Cl)c(C(=O)NOCCO)cc21 [AZD6244] | recovers p21 protein expression | restores oncogene-induced senescence | CSCs are depleted | Stem cell score [4]: can reverse the stem-cell phenotype
2 | NC(=O)Nc1cc(-c2cccc(F)c2)sc1C(=O)N[C@H]1CCCNC1 [AZD7762] |  |  |  | tumor growth, sensitization to immunotherapy [5]: sensitizes cells to immunotherapy
3 | O=C(Nc1ccc2[nH]nc(-c3ccncc3)c2c1)[C@@H]1CCN(CC(=O)N2CCN(c3ccc(-c4ncccn4)cc3)CC2)C1 [SCH772984] | recovers p21 protein expression | restores oncogene-induced senescence | CSCs are depleted | p53 levels [6]: negligible changes in p53 levels; MDM2 phosphorylation [7]: suppression of MDM2 phosphorylation
4 | CS(=O)(=O)c1ccc(-c2cnc(N)c(C(=O)Nc3ccccc3)n2)cc1 [VE821] |  |  |  | pIC50 [8]: 7.82
5 | pembrolizumab: anti-PD-1 antibody described in WO2009/114335 |  |  |  | improvement in survival [9]: 6.2 month
